The target in the test is T1, GST-hCAR-LBD (Homo sapiens, UniProt Q14994).
T1 construct: purchased Life Technologies (Carlsbad, Calif.) or Invitrogen (Carlsbad, Calif.)
T1 sequence (Q14994 109-352 limits assumed): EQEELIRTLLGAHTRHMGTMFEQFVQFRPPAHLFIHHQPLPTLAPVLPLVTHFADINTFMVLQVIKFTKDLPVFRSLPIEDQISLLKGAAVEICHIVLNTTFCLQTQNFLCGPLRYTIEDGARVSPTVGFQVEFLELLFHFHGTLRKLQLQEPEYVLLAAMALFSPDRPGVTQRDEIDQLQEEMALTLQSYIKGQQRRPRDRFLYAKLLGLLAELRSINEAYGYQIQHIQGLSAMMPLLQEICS
Briefly: CoAct binding inverse agonist assay (LanthaScreen TR-FRET, fluorescent PGC-1α coactivator recruitment/repression). It counts as biochemical. The conditions noted are these: for inhibition at 70 µM: read-out: % Inhibition (70 μM); for fold increase of CAR inverse agonistic activity (potency) over lead chemical 1 (CINPA1): relative to chemical 1. As for the experimental part:
The effect of putative CAR ligands on the recruitment or repression of PGC-1α binding to hCAR was evaluated by using a LanthaScreen TR-FRET assay according to the manufacturer's instructions. […] The final DMSO concentration was 0.7% in all assay wells. […] The % Inhibition values were then plotted for individual chemicals. When applicable, the graphic software GraphPad Prism 5.04 (GraphPad Software, La Jolla, Calif., USA) was used to fit the data into a one-site competitive-binding equation to derive IC50 values. […] The assay plates were then briefly spun down and incubated for 1 hour at room temperature (25° C.). […] The final DMSO concentration was 0.7% in all assay wells. […] The % Inhibition values were then plotted for individual chemicals. When applicable, the graphic software GraphPad Prism 5.04 (GraphPad Software, La Jolla, Calif., USA) was used to fit the data into a one-site competitive-binding equation to derive IC50 values.
(Time-resolved FRET reads energy transfer from a long-lived donor to a nearby acceptor.)

Where [1] appears, read: read-out: IC50 (CAR inverse agonistic activity).
[2] abbreviates: 70 μM compound, 42 μM clotrimazole = 100%, DMSO = 0%.

These results are taken from patent US9908890B2, “Selective inhibitors of constitutive androstane receptor” (ST. JUDE CHILDREN'S RESEARCH HOSPITAL, priority 2014, dated 2018).

Like-named read-outs stand apart in the source and are kept apart here.

As to `CC(C)(C)OC(=O)Nc1ccc2c(c1)N(C(=O)CN1CCCCC1)c1ccccc1CC2` [Compound 38, tert-butyl (5-(2-(piperidin-1-yl)acetyl)-10,11-dihydro-5H-dibenzo[b,f]azepin-3-yl)carbamate], the IC50 under setting [1] was determined as 220 nM.

As for `CCOC(=O)Nc1ccc2c(c1)N(C(=O)CCN(C)C)c1ccccc1CC2` [compound 86], under setting [1], the IC50 is 5010 nM.

For `CCCN(CCC)CC(=O)N1c2ccccc2CCc2ccc(NC(=O)OC(C)(C)C)cc21` [Compound 37, tert-butyl (5-(dipropylglycyl)-10,11-dihydro-5H-dibenzo[b,f]azepin-3-yl)carbamate], the IC50 by setting is: (Table 4, read-out: IC50) 153 nM; under setting [1], 150 nM.

`CCCC(=O)Nc1ccc2c(c1)N(C(=O)CN(CC)CC)c1ccccc1CC2` [Compound 2, N-(5-(diethylglycyl)-10,11-dihydro-5H-dibenzo[b,f]azepin-3-yl)butyramide]: the inhibition at 70 µM under setting [2] is 106%. Also, the 50% inhibitory concentration (IC50) (quoted in SAR text in nM, read-out: IC50 (CAR inverse agonistic activity)) was determined as 2320 nM.

Turning to `O=C(Nc1ccc2c(c1)N(C(=O)N1CCCCC1)c1ccccc1CC2)OC1CCCCC1` [Compound 59], the IC50 (Table 4, read-out: IC50) was determined as 150 nM.

On to `O=C(Nc1ccc2c(c1)N(C(=O)Cn1cccc1)c1ccccc1CC2)OC1CCCC1` [Compound 43, cyclopentyl (5-(2-(1H-pyrrol-1-yl)acetyl)-10,11-dihydro-5H-dibenzo[b,f]azepin-3-yl)carbamate], for which the IC50 under setting [1] was 14 nM.

Consider `O=C(Nc1ccc2c(c1)N(C(=O)Cn1cccc1)c1ccccc1CC2)OC1CCCCC1` [Compound 44, cyclohexyl (5-(2-(1H-pyrrol-1-yl)acetyl)-10,11-dihydro-5H-dibenzo[b,f]azepin-3-yl)carbamate], for which the “fold increase of CAR inverse agonistic activity (potency) over lead chemical 1 (CINPA1)” value is listed as “approximately 59 fold”. The IC50 under setting [1] amounted to 12 nM.

Regarding `CCOC(=O)Nc1ccc2c(c1)N(C(=O)CN(CC)CC)c1ccccc1CC2` [Compound 70], the “% Inhibition (70 μM)” value under setting [2] is listed as 104.8%. For the same compound, the IC50 (Table 4, read-out: IC50) worked out at 620 nM.

Take `CC(C)OCC(=O)N1c2ccccc2CCc2ccc(NC(=O)OC(C)C)cc21` [Compound 30, isopropyl (5-(2-isopropoxyacetyl)-10,11-dihydro-5H-dibenzo[b,f]azepin-3-yl)carbamate]: the IC50 under setting [1] was determined as 60 nM.

For `CCC(C)OCC(=O)N1c2ccccc2CCc2ccc(NC(=O)OC(C)C)cc21` (centres unmarked) [Compound 31, isopropyl (5-(2-(sec-butoxy)acetyl)-10,11-dihydro-5H-dibenzo[b,f]azepin-3-yl)carbamate], the IC50 under setting [1] turned out to be 35 nM.

In the case of `CC(C)OC(=O)Nc1ccc2c(c1)N(C(=O)c1cccs1)c1ccccc1CC2` [Compound 64], for the setting “Table 4, read-out: IC50”, the IC50 came out at 12 nM.

With `CC(C)OC(=O)Nc1ccc2c(c1)N(C(=O)COC1CCC1)c1ccccc1CC2` [Compound 34, isopropyl (5-(2-cyclobutoxyacetyl)-10,11-dihydro-5H-dibenzo[b,f]azepin-3-yl)carbamate], the IC50 under setting [1] was found to be 38 nM.

Turning to `CCOC(=O)Nc1ccc2c(c1)N(C(=O)CN1C(C)(C)CCCC1(C)C)c1ccccc1CC2` [Compound 14, ethyl (5-(2-(2,2,6,6-tetramethylpiperidin-1-yl)acetyl)-10,11-dihydro-5H-dibenzo[b,f]azepin-3-yl)carbamate], under setting [2], the inhibition at 70 µM turned out to be 90.5%. Also, under setting [1], the IC50 came out at 4080 nM. The “fold IC50 relative to chemical 18” value (relative to chemical 18) is “over 6 fold”.

Consider `CCOC(=O)Nc1ccc2c(c1)N(C(=O)COC(C)(C)C)c1ccccc1CC2` [Compound 19, ethyl (5-(2-(tert-butoxy)acetyl)-10,11-dihydro-5H-dibenzo[b,f]azepin-3-yl)carbamate], for which the “fold increase of CAR inverse agonistic activity (potency) over lead chemical 1 (CINPA1)” value is given as 9.7 fold. Moreover, the inhibition at 70 µM under setting [2] turned out to be 120%. The IC50 under setting [1] worked out at 71 nM.

Consider `CCN(CC)CCC(=O)N1c2ccccc2CCc2ccc(NC(=O)OC(C)C)cc21` [Compound 25, isopropyl (5-(3-(diethylamino)propanoyl)-10,11-dihydro-5H-Dibenzo[b,f]azepin-3-yl)carbamate], for which the IC50 under setting [1] was determined as 6400 nM.

The IC50 is the midpoint of a concentration-inhibition curve. Broadly, the inhibition is the drop in the measured response relative to a control, in per cent.
